Experimental data taken from the supplement of paper PMC10307832.

Experiments:
Assay in all cases: relative viability (nuclei count vs DMSO), 5 days (fraction); higher = more cells survive
NCI-H1734 = tested on: NCI-H1734
Outline: (§1)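 Values are medians from duplicate plates. Each reflects relative viability, defined as the nuclei count of treated wells over that of vehicle wells. Lung cancer cell lines in 1536-well plates were pin-tool dosed one day after seeding with one drug alone or with a fixed anchor-drug dose plus five library-drug doses (not always all listed) in √10 steps, then fixed, stained and imaged at 4× after 5 days.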

RERF-LC-KJ = tested on: RERF-LC-KJ
Outline: as §1

NCI-H1975 = tested on: NCI-H1975
Outline: as §1

LCLC-97TM1 = tested on: LCLC-97TM1
Outline: as §1

PC-3 [JPC-3] = tested on: PC-3 [JPC-3]
Outline: as §1

NCI-H322M = tested on: NCI-H322M
Outline: as §1

NCI-H1650 = tested on: NCI-H1650
Outline: as §1

CAL-12T = tested on: CAL-12T
Outline: as §1

PC-14 = tested on: PC-14
Outline: as §1

HCC-827 = tested on: HCC-827
Outline: as §1

LK-2 = tested on: LK-2
Outline: as §1

NCI-H520 = tested on: NCI-H520
Outline: as §1

NCI-H2342 = tested on: NCI-H2342
Outline: as §1

NCI-H1755 = tested on: NCI-H1755
Outline: as §1

HCC-15 = tested on: HCC-15
Outline: as §1

NCI-H1355 = tested on: NCI-H1355
Outline: as §1

EKVX = tested on: EKVX
Outline: as §1

H3255 = tested on: H3255
Outline: as §1

NCI-H661 = tested on: NCI-H661
Outline: as §1

NCI-H2405 = tested on: NCI-H2405
Outline: as §1

NCI-H2228 = tested on: NCI-H2228
Outline: as §1

## CC(=O)O[C@@]12CO[C@@H]1C[C@H](O)[C@@]1(C)C(=O)[C@H](O)C3=C(C)[C@@H](OC(=O)[C@H](O)[C@@H](NC(=O)OC(C)(C)C)c4ccccc4)C[C@@](O)([C@@H](OC(=O)c4ccccc4)[C@H]21)C3(C)C [Docetaxel] + Cc1cc(Nc2cc(N3CCN(C)CC3)nc(Sc3ccc(NC(=O)C4CC4)cc3)n2)n[nH]1 [Tozasertib] (partner 0.1 µM)
NCI-H1734; first compound 0.0002 µM
  relative viability: 0.308
NCI-H1734; first compound 0.000632 µM
  relative viability: 0.345
NCI-H1734; first compound 0.002 µM
  relative viability: 0.302
NCI-H1734; first compound 0.006325 µM
  relative viability: 0.341
NCI-H1734; first compound 0.02 µM
  relative viability: 0.292
RERF-LC-KJ; first compound 0.0002 µM
  relative viability: 0.525
RERF-LC-KJ; first compound 0.000632 µM
  relative viability: 0.403
RERF-LC-KJ; first compound 0.002 µM
  relative viability: 0.279
RERF-LC-KJ; first compound 0.006325 µM
  relative viability: 0.278
RERF-LC-KJ; first compound 0.02 µM
  relative viability: 0.197
NCI-H1975; first compound 0.0002 µM
  relative viability: 0.705
NCI-H1975; first compound 0.000632 µM
  relative viability: 0.367
NCI-H1975; first compound 0.002 µM
  relative viability: 0.158
NCI-H1975; first compound 0.006325 µM
  relative viability: 0.133
NCI-H1975; first compound 0.02 µM
  relative viability: 0.0956
LCLC-97TM1; first compound 0.000632 µM
  relative viability: 0.209
LCLC-97TM1; first compound 0.002 µM
  relative viability: 0.191
LCLC-97TM1; first compound 0.006325 µM
  relative viability: 0.122
LCLC-97TM1; first compound 0.02 µM
  relative viability: 0.13
PC-3 [JPC-3]; first compound 0.0002 µM
  relative viability: 0.851
PC-3 [JPC-3]; first compound 0.000632 µM
  relative viability: 0.78
PC-3 [JPC-3]; first compound 0.002 µM
  relative viability: 0.426
PC-3 [JPC-3]; first compound 0.006325 µM
  relative viability: 0.209
PC-3 [JPC-3]; first compound 0.02 µM
  relative viability: 0.118
NCI-H322M; first compound 0.0002 µM
  relative viability: 0.479
NCI-H322M; first compound 0.000632 µM
  relative viability: 0.477
NCI-H322M; first compound 0.002 µM
  relative viability: 0.49
NCI-H322M; first compound 0.006325 µM
  relative viability: 0.485
NCI-H322M; first compound 0.02 µM
  relative viability: 0.476
NCI-H1650; first compound 0.0002 µM
  relative viability: 0.386
NCI-H1650; first compound 0.000632 µM
  relative viability: 0.328
NCI-H1650; first compound 0.006325 µM
  relative viability: 0.306
NCI-H1650; first compound 0.02 µM
  relative viability: 0.168
CAL-12T; first compound 0.0002 µM
  relative viability: 0.319
CAL-12T; first compound 0.000632 µM
  relative viability: 0.32
CAL-12T; first compound 0.002 µM
  relative viability: 0.227
CAL-12T; first compound 0.006325 µM
  relative viability: 0.251
CAL-12T; first compound 0.02 µM
  relative viability: 0.142
PC-14; first compound 0.0002 µM
  relative viability: 0.534
PC-14; first compound 0.000632 µM
  relative viability: 0.489
PC-14; first compound 0.002 µM
  relative viability: 0.0877
PC-14; first compound 0.006325 µM
  relative viability: 0.0613
PC-14; first compound 0.02 µM
  relative viability: 0.0312
HCC-827; first compound 0.0002 µM
  relative viability: 0.406
HCC-827; first compound 0.000632 µM
  relative viability: 0.412
HCC-827; first compound 0.002 µM
  relative viability: 0.328
HCC-827; first compound 0.006325 µM
  relative viability: 0.332
HCC-827; first compound 0.02 µM
  relative viability: 0.295
LK-2; first compound 0.0002 µM
  relative viability: 0.155
LK-2; first compound 0.000632 µM
  relative viability: 0.215
LK-2; first compound 0.002 µM
  relative viability: 0.157
LK-2; first compound 0.006325 µM
  relative viability: 0.188
LK-2; first compound 0.02 µM
  relative viability: 0.166
NCI-H520; first compound 0.0002 µM
  relative viability: 0.418
NCI-H520; first compound 0.000632 µM
  relative viability: 0.468
NCI-H520; first compound 0.002 µM
  relative viability: 0.445
NCI-H520; first compound 0.006325 µM
  relative viability: 0.376
NCI-H520; first compound 0.02 µM
  relative viability: 0.317
NCI-H2342; first compound 0.0002 µM
  relative viability: 0.584
NCI-H2342; first compound 0.000632 µM
  relative viability: 0.539
NCI-H2342; first compound 0.002 µM
  relative viability: 0.543
NCI-H2342; first compound 0.006325 µM
  relative viability: 0.466
NCI-H2342; first compound 0.02 µM
  relative viability: 0.297
NCI-H1755; first compound 0.0002 µM
  relative viability: 0.62
NCI-H1755; first compound 0.000632 µM
  relative viability: 0.609
NCI-H1755; first compound 0.002 µM
  relative viability: 0.46
NCI-H1755; first compound 0.006325 µM
  relative viability: 0.335
NCI-H1755; first compound 0.02 µM
  relative viability: 0.373
HCC-15; first compound 0.0002 µM
  relative viability: 0.391
HCC-15; first compound 0.000632 µM
  relative viability: 0.266
HCC-15; first compound 0.002 µM
  relative viability: 0.174
HCC-15; first compound 0.006325 µM
  relative viability: 0.239
HCC-15; first compound 0.02 µM
  relative viability: 0.135
NCI-H1355; first compound 0.0002 µM
  relative viability: 0.453
NCI-H1355; first compound 0.000632 µM
  relative viability: 0.43
NCI-H1355; first compound 0.002 µM
  relative viability: 0.271
NCI-H1355; first compound 0.006325 µM
  relative viability: 0.263
NCI-H1355; first compound 0.02 µM
  relative viability: 0.202
EKVX; first compound 0.0002 µM
  relative viability: 0.519
EKVX; first compound 0.000632 µM
  relative viability: 0.409
EKVX; first compound 0.002 µM
  relative viability: 0.224
EKVX; first compound 0.006325 µM
  relative viability: 0.212
EKVX; first compound 0.02 µM
  relative viability: 0.149
H3255; first compound 0.0002 µM
  relative viability: 0.83
H3255; first compound 0.000632 µM
  relative viability: 0.507
H3255; first compound 0.002 µM
  relative viability: 0.241
H3255; first compound 0.006325 µM
  relative viability: 0.264
H3255; first compound 0.02 µM
  relative viability: 0.236
NCI-H661; first compound 0.0002 µM
  relative viability: 0.367
NCI-H661; first compound 0.000632 µM
  relative viability: 0.387
NCI-H661; first compound 0.002 µM
  relative viability: 0.432
NCI-H661; first compound 0.006325 µM
  relative viability: 0.352
NCI-H661; first compound 0.02 µM
  relative viability: 0.4
NCI-H2405; first compound 0.0002 µM
  relative viability: 0.699
NCI-H2405; first compound 0.000632 µM
  relative viability: 0.556
NCI-H2405; first compound 0.002 µM
  relative viability: 0.461
NCI-H2405; first compound 0.006325 µM
  relative viability: 0.361
NCI-H2405; first compound 0.02 µM
  relative viability: 0.278
NCI-H2228; first compound 0.0002 µM
  relative viability: 0.242
NCI-H2228; first compound 0.000632 µM
  relative viability: 0.169
NCI-H2228; first compound 0.002 µM
  relative viability: 0.127
NCI-H2228; first compound 0.006325 µM
  relative viability: 0.168
NCI-H2228; first compound 0.02 µM
  relative viability: 0.121
